Assay results reported in US10392368B2, “Pyrazolo and triazolo bicyclic compounds as JAK kinase inhibitors” (THERAVANCE BIOPHARMA R&D IP, LLC, priority 2017, dated 2019).

Assays:
JAK2 = target: T1, JAK2 (Homo sapiens, UniProt O60674); assay: Biochemical JAK2 kinase assay (LanthaScreen); conditions: for Ki: read-out: JAK 2 (pKi) (converted)
T1 construct: GST; purchased Life Technologies
Outline: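 pKi values derive from pIC50 via Cheng-Prusoff, with IC50 from a 4-parameter fit of percent-inhibition TR-FRET data using Tb-anti-pSTAT1 (pTyr701) detection. Compound, GST-JAK2 and GFP-STAT1 substrate were pre-incubated 1 h, then ATP started a 1 h ambient reaction (HEPES pH 7.5, 10 mM MgCl2, 1% DMSO).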

[1] = system: IL-2 stimulated pSTAT5 in Tall-1 T cells; assay: Cellular JAK3 potency assay: inhibition of IL-2 stimulated pSTAT5 in Tall-1 T cells; assay type: cell-based, human; conditions: for Tall-1 (pIC50): IL-2 stimulated pSTAT5 in Tall-1 T cells; for IC50: Homo sapiens, TALL-1, IL-2 stimulated pSTAT5 in Tall-1 T cells, read-out: Tall-1 (pIC50) (converted)
Outline: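 Tall-1 human T cells were preincubated with compound for 1 h at 37° C, then stimulated with IL-2 (300 ng/ml final) for 30 min. STAT5 phosphorylation in lysates was read by AlphaLisa bead emission, and IC50 from inhibition curves is given as pIC50 (mean±SD).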

Tyk2 = target: T2, Tyk2 (Homo sapiens, UniProt P29597); assay: Biochemical Tyk2 kinase assay (LanthaScreen); conditions: for Ki: read-out: Tyk 2 (pKi) (converted)
T2 construct: GST; purchased Life Technologies
Outline: (§1)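 Compounds were preincubated with the GST-tagged kinase and GFP-labelled STAT1 peptide for one hour before ATP initiated a one-hour reaction at ambient temperature. Phosphorylation was quantified by TR-FRET with a Tb-labelled pTyr701 antibody. Ki values were derived from IC50 using Cheng-Prusoff.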

JAK3 = target: T3, JAK3 (Homo sapiens, UniProt P52333); assay: Biochemical JAK3 kinase assay (LanthaScreen); set-up: GST; purchased Life Technologies; conditions: for JAK3 (pKi)-JAK1 (pKi): selectivity: difference of pKi JAK3 and pKi JAK1; for Ki: read-out: JAK 3 (pKi) (converted)
T3 sequence (P52333 1-1124): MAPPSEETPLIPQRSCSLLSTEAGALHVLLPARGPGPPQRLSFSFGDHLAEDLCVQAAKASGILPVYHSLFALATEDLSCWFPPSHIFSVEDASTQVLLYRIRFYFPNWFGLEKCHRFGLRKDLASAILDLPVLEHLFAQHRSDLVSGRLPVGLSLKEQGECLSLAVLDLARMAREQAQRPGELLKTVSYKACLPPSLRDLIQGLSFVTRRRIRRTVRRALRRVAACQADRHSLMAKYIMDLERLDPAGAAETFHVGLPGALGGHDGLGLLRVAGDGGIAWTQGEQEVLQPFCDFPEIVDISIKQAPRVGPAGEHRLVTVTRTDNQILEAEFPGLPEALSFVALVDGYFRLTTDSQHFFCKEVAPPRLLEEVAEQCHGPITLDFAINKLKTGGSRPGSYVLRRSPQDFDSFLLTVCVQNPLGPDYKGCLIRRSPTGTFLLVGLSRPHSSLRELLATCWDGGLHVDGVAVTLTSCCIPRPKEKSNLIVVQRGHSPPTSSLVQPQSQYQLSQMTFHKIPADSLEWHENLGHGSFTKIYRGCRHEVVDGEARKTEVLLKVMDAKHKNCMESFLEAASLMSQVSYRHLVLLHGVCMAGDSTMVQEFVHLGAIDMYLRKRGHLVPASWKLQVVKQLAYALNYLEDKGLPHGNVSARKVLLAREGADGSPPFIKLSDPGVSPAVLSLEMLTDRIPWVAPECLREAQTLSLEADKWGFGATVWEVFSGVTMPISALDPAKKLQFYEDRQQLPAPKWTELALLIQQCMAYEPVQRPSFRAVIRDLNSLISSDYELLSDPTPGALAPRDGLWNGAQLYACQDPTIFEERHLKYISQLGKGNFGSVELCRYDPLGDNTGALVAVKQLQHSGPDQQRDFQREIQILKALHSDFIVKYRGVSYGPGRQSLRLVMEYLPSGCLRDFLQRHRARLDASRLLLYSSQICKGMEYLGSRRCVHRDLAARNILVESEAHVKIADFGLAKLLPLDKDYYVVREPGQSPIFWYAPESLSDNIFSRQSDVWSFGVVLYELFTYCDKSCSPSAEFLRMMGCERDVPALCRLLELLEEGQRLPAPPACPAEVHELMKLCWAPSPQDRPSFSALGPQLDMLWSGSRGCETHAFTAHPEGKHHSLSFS
Outline: as §1

JAK1 = target: T4, JAK1 (Homo sapiens, UniProt P23458); assay: Biochemical JAK1 kinase assay (LanthaScreen); conditions: for Ki: read-out: JAK 1 (pKi) (converted)
T4 construct: GST; purchased Life Technologies
Outline: as §1

T2 sequence (P29597 whole entry): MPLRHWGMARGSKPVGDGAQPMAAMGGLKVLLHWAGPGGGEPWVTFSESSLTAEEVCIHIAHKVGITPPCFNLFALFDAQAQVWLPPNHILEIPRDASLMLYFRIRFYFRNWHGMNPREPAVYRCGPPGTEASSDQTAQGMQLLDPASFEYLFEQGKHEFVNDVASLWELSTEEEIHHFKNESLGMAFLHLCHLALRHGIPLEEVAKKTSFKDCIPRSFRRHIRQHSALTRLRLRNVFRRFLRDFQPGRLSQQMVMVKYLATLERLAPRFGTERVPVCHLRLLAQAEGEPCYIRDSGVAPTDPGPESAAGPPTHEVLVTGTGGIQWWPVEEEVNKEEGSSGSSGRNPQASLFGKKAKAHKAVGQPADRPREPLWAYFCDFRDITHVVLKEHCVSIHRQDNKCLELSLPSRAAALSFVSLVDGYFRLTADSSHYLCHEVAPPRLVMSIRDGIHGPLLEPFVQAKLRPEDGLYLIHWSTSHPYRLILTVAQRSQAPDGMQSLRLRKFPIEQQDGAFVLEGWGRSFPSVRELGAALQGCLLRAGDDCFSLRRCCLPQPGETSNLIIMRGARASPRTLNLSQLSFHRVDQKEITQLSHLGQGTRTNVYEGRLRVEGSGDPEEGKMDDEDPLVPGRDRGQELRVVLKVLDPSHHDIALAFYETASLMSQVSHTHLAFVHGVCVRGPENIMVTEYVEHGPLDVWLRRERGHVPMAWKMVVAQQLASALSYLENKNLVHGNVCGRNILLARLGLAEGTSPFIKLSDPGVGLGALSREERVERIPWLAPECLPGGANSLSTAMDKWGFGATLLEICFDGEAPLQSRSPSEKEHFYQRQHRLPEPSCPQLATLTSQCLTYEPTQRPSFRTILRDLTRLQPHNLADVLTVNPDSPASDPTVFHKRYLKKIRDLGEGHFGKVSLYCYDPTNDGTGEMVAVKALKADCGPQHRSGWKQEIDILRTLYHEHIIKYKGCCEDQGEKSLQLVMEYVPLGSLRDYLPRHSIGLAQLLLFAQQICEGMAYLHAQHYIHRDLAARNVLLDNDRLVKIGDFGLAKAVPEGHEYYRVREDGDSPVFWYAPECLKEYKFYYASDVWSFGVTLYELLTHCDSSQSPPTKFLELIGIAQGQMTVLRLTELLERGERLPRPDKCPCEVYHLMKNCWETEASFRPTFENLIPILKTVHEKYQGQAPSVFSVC
T4 sequence (P23458 whole entry): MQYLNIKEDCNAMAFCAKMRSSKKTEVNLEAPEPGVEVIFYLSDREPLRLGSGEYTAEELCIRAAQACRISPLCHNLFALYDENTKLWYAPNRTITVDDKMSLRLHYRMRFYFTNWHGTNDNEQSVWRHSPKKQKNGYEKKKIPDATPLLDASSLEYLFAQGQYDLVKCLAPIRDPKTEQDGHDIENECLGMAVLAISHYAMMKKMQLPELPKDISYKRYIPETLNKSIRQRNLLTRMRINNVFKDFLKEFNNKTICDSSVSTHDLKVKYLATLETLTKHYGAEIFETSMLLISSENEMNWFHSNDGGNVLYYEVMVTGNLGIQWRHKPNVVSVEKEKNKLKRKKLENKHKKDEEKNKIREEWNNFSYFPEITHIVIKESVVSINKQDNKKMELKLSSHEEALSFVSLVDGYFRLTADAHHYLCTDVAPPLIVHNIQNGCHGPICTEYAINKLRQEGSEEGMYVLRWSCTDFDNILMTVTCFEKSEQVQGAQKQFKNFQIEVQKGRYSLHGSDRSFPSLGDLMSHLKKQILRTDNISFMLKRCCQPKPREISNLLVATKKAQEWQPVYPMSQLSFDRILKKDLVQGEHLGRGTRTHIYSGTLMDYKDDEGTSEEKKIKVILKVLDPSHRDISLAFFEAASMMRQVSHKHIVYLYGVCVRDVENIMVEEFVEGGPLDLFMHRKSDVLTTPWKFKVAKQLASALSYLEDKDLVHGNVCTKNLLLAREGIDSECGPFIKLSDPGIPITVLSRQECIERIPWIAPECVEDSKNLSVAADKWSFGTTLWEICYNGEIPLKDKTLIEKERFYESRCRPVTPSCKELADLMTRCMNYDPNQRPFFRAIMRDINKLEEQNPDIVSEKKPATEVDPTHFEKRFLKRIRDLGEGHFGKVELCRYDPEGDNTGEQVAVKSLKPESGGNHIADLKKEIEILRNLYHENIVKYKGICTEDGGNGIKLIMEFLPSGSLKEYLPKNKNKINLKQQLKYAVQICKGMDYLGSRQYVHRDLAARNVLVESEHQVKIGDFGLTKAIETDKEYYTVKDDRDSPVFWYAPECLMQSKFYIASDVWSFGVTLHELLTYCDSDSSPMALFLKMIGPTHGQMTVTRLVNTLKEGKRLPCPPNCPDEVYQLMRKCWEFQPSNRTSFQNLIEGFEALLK
T1 sequence (O60674 whole entry): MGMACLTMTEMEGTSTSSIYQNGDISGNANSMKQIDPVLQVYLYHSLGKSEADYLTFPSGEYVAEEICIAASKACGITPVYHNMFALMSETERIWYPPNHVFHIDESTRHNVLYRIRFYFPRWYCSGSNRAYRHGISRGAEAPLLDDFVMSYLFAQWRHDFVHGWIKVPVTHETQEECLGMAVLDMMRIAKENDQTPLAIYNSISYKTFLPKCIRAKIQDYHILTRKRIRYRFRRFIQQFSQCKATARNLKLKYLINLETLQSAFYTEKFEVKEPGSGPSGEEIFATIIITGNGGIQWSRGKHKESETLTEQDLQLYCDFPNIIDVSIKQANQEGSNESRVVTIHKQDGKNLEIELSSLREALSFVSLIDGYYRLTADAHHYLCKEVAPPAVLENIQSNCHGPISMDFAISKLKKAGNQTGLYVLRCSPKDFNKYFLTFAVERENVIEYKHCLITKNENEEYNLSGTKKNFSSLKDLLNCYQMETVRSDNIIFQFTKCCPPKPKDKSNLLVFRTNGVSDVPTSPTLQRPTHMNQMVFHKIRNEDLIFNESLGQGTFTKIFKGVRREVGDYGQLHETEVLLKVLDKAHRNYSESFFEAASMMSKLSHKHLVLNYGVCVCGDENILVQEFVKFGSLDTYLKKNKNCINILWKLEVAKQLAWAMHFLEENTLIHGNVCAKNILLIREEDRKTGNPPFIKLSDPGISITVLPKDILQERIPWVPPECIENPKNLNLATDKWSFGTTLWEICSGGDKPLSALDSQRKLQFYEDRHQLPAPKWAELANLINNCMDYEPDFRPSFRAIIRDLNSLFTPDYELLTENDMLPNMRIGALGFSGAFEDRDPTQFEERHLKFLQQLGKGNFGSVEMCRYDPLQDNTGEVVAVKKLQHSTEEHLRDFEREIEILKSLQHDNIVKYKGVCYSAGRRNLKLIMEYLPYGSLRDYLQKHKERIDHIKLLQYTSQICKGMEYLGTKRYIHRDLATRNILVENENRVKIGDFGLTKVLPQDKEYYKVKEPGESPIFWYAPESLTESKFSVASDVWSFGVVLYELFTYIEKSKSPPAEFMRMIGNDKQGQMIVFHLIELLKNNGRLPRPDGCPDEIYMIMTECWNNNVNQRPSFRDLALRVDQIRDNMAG

SMILES	JAK 2 (pKi) (JAK2)	Tall-1 (pIC50) [1]	Tyk 2 (pKi) (Tyk2)	JAK 3 (pKi) (JAK3)	JAK3 (pKi)-JAK1 (pKi) (JAK3)	JAK 1 (pKi) (JAK1)	Ki (JAK2) [nM]	IC50 [1] [nM]	Ki (Tyk2) [nM]	Ki (JAK3) [nM]	Ki (JAK1) [nM]
C=CC(=O)N1CC(CC)(COc2nc(-c3ccc(O)cc3)cc3[nH]ncc23)C1 [Compound 3-62]	D (a pKi value between 7 and 8 (Ki between 100 nM and 10 nM))	A (a pIC50 value≥7.5 (IC50≤32 nM))	E (a pKi value of 7 or below (Ki of 100 nM or above))	B (a pKi value between 9 and 10 (Ki between 1 nM and 0.1 nM))	A (a value of 3 or above)	E (a pKi value of 7 or below (Ki of 100 nM or above))	–	–	–	–	–
C=CC(=O)N1CC(CC)(COc2nc(-c3ccc(O)cc3)nc3[nH]ncc23)C1 [Compound 3-63]	E (a pKi value of 7 or below (Ki of 100 nM or above))	B (a pIC50 value between 6.7 (included) and 7.5 (IC50 between 200 nM and 32 nM))	E (a pKi value of 7 or below (Ki of 100 nM or above))	A (a pKi value≥10 (Ki≤0.1 nM))	A (a value of 3 or above)	E (a pKi value of 7 or below (Ki of 100 nM or above))	–	–	–	–	–
C=CC(=O)N1CC(CC)(COc2nc(-c3ccc(O)c(Cl)c3)cc3[nH]ncc23)C1 [Compound 3-66]	E (a pKi value of 7 or below (Ki of 100 nM or above))	A (a pIC50 value≥7.5 (IC50≤32 nM))	E (a pKi value of 7 or below (Ki of 100 nM or above))	B (a pKi value between 9 and 10 (Ki between 1 nM and 0.1 nM))	A (a value of 3 or above)	E (a pKi value of 7 or below (Ki of 100 nM or above))	–	–	–	–	–
C=CC(=O)N1CC(CC)(COc2nc(-c3ccc(O)c(F)c3)nc3[nH]ncc23)C1 [Compound 3-67]	–	–	–	–	A (a value of 3 or above)	–	> 100	31.6 to 200	> 100	0.1 to 1	> 100
CCC1(COc2cc(-c3ccc(O)c(Cl)c3)nc3[nH]ncc23)CN(C(=O)/C=C/CN(C)C)C1 [Compound 3-68]	E (a pKi value of 7 or below (Ki of 100 nM or above))	C (a pIC50 value between 6 and 6.7 (IC50 between 1 μM and 200 nM))	E (a pKi value of 7 or below (Ki of 100 nM or above))	B (a pKi value between 9 and 10 (Ki between 1 nM and 0.1 nM))	B (a value of 2.3 to 3)	D (a pKi value between 7 and 8 (Ki between 100 nM and 10 nM))	–	–	–	–	–
C=CC(=O)N1CC(CC)(COc2cc(-c3ccc(O)c(Cl)c3)nc3[nH]ncc23)C1 [Compound 3-69]	E (a pKi value of 7 or below (Ki of 100 nM or above))	B (a pIC50 value between 6.7 (included) and 7.5 (IC50 between 200 nM and 32 nM))	E (a pKi value of 7 or below (Ki of 100 nM or above))	A (a pKi value≥10 (Ki≤0.1 nM))	A (a value of 3 or above)	E (a pKi value of 7 or below (Ki of 100 nM or above))	–	–	–	–	–
C=CC(=O)N1CC(CC)(COc2cc(-c3ccc(O)c(F)c3)nc3[nH]ncc23)C1 [Compound 3-70]	E (a pKi value of 7 or below (Ki of 100 nM or above))	B (a pIC50 value between 6.7 (included) and 7.5 (IC50 between 200 nM and 32 nM))	E (a pKi value of 7 or below (Ki of 100 nM or above))	A (a pKi value≥10 (Ki≤0.1 nM))	A (a value of 3 or above)	E (a pKi value of 7 or below (Ki of 100 nM or above))	–	–	–	–	–
CN(C)C/C=C/C(=O)N1CC(C#N)(COc2nc(-c3ccc(O)c(Cl)c3)cc3[nH]ncc23)C1 [Compound 3-71]	E (a pKi value of 7 or below (Ki of 100 nM or above))	A (a pIC50 value≥7.5 (IC50≤32 nM))	E (a pKi value of 7 or below (Ki of 100 nM or above))	A (a pKi value≥10 (Ki≤0.1 nM))	A (a value of 3 or above)	E (a pKi value of 7 or below (Ki of 100 nM or above))	–	–	–	–	–
C=CC(=O)N1CC(COc2cc(-c3ccc(O)c(Cl)c3)cc3[nH]ncc23)(OC)C1 [Compound 3-73]	E (a pKi value of 7 or below (Ki of 100 nM or above))	A (a pIC50 value≥7.5 (IC50≤32 nM))	E (a pKi value of 7 or below (Ki of 100 nM or above))	A (a pKi value≥10 (Ki≤0.1 nM))	A (a value of 3 or above)	E (a pKi value of 7 or below (Ki of 100 nM or above))	–	–	–	–	–
C=CC(=O)N1CC(COc2cc(-c3ccc(O)c(F)c3)cc3[nH]ncc23)(OC)C1 [Compound 3-75]	E (a pKi value of 7 or below (Ki of 100 nM or above))	A (a pIC50 value≥7.5 (IC50≤32 nM))	E (a pKi value of 7 or below (Ki of 100 nM or above))	B (a pKi value between 9 and 10 (Ki between 1 nM and 0.1 nM))	A (a value of 3 or above)	E (a pKi value of 7 or below (Ki of 100 nM or above))	–	–	–	–	–
C=CC(=O)N1CC(C(C)Oc2nc(-c3ccc(O)cc3)nc3[nH]ncc23)C1 (stereo not drawn) [Compound 3-77]	–	–	–	–	A (a value of 3 or above)	–	> 100	31.6 to 200	> 100	< 0.1	> 100
C=C(CN(C)C)C(=O)N1CC(COc2cc(-c3ccc(O)cc3)nc3[nH]ncc23)C1 [Compound 3-79]	–	–	–	–	A (a value of 3 or above)	–	> 100	31.6 to 200	> 100	0.1 to 1	> 100
C=CC(=O)N1CC(COc2cc(-c3ccc(O)c(OC)c3)cc3[nH]ncc23)C1 [Compound 3-83]	–	–	–	–	A (a value of 3 or above)	–	> 100	< 31.6	> 100	< 0.1	> 100
CN1CCC[C@@H]1/C=C/C(=O)N1CC(COc2cc(-c3ccc(O)cc3)cc3[nH]ncc23)C1 [Compound 3-85]	–	–	–	–	A (a value of 3 or above)	–	10 to 100	< 31.6	> 100	< 0.1	> 100
C=CC(=O)N1CC(COc2cc(-c3ccc(O)c(Cl)c3)nc3[nH]ncc23)C1 [Compound 3-86]	–	–	–	–	A (a value of 3 or above)	–	> 100	31.6 to 200	> 100	< 0.1	> 100
C=CC(=O)N1CC(COc2cc(-c3ccc(O)c(F)c3)nc3[nH]ncc23)C1 [Compound 3-87]	–	–	–	–	A (a value of 3 or above)	–	> 100	31.6 to 200	> 100	0.1 to 1	> 100
CN(C)C/C=C/C(=O)N1CC(F)(COc2nc(-c3ccc(O)cc3)nc3[nH]ncc23)C1 [Compound 3-88]	–	–	–	–	A (a value of 3 or above)	–	> 100	31.6 to 200	> 100	0.1 to 1	> 100
CN(C)C/C=C/C(=O)N1CC(F)(COc2cc(-c3ccc(O)cc3)nc3[nH]ncc23)C1 [Compound 3-89]	–	–	–	–	A (a value of 3 or above)	–	> 100	31.6 to 200	> 100	< 0.1	> 100
